Results from US12624050B2, “Three fused ring derivative-containing salt or crystal form and pharmaceutical composition thereof” (Shanghai Hansoh Biomedical Co., Ltd., priority 2019, dated 2026).

Columns and labels:
HGC-27 (E542K) = test: Proliferation inhibition of PI3Kα mutant cancer cells, Cell Titer-Glo, HGC-27; format: cell-based; conditions: Homo sapiens
Protocol: (§1) The proliferation inhibitory effect of the compounds of the examples on the PI3Kα mutant cancer cell lines (HCC1954, HGC-27 and MKN1) was detected by Cell Titer-Glo method. Cell lines were cultured in RPMI 1640 medium (Gibco #22400089) containing 10% FBS (Gibco #10091148) and 1% P/S (Hyclone #SV30010) under the condition of 37° C. and 5% CO2. The cells were collected before the experiment, and the cell density was adjusted after cell counting. The cells were seeded in a white 96-well plate (Corning #3610) at a density of 1000 to 10000 cells/well, and incubated in an incubator at 37° C. and 5% CO2 overnight. The prepared compound solutions of different concentrations and the corresponding solvent controls were added to the plate. The plate was again incubated in an incubator at 37° C. and 5% CO2 for 48 to 96 hours. Then the cell plate and its contents were equilibrated to room temperature. 20 to 100 μL of Cell Titer-Glo solution (Promega #G7573) was added to each well, and the plate was shaken and mixed well, then incubated at room temperature for 5 to 30 minutes in the dark. The chemiluminescence was measured by a SynergyH1 microplate reader from BioTek.
(§2) The percentage inhibition data of the compound-treated well was calculated from solvent control wells on the plate {% inhibition=100−(test compound value−solvent control value)×100}. IC50 values were calculated using GraphPad prism and using a four-parameter nonlinear logistic formula to fit the data of different concentrations and corresponding percent inhibition.

HCC1954 cell = test: In vivo efficacy test, HCC1954 tumor-bearing nude mice; set-up: species or system BALB/c nude mice; conditions: oral, 10 mg/kg, once/day, 21 days (Example 22: 19 days)
Protocol: • a. A strain of HCC1954 cell was taken from the cell bank, recovered with RPMI-1640 medium (RPMI-1640+10% FBS+1% SP), plated in a cell culture flask (cell type, date, name of the experimenter and the like were labeled on the wall of the flask) and cultured in a CO2 incubator (the temperature was 37° C. and the CO2 concentration was 5% in the incubator). • b. Cells were passaged when they covered 80 to 90% of the bottom of the culture flask. After passage, the cells continued to be cultured in the CO2 incubator. This process was repeated until the number of cells was sufficient for the in vivo efficacy test. • c. The cultured cells were collected and counted with an automatic cell counter, and then resuspended with PBS and Matrigel Matrix according to the counting results to prepare a cell suspension (density 5×10^7/mL), which was placed in an ice box for use. 4.3.2 Cell Inoculation • a. The nude mice were labeled with disposable universal ear tags for rats and mice before inoculation. • b. During the inoculation, the cell suspension was mixed well. 0.1 to 1 mL of the cell suspension was drawn with a 1 mL syringe, air bubbles were removed, and then the syringe was placed on an ice pack for use. • c. The nude mouse was bound with the left hand. The position on the right side of the back close to the right shoulder of the nude mouse (inoculation site) was disinfected with 75% alcohol. Inoculation started after 30 seconds. • d. The test nude mice were successively inoculated (each mouse was inoculated with 0.1 mL of cell suspension). 4.3.3 Tumor Measurement, Grouping and Administration of Tumor-Bearing Mice • a. According to the tumor growth, the tumors was measured on 14 to 18 days after inoculation, and the tumor size was calculated. Calculation of tumor volume: tumor volume (mm^3)=length (mm)×width (mm)×width (mm)/2 • b. The tumor-bearing mice were grouped according to their body weight and tumor size by random grouping. • c. The test compounds were administered according to the grouping results (administration route: oral administration; administration dose: 10 mg/kg; administration volume: 10 mL/kg; administration frequency: once/day; administration cycle: 21 days; vehicle: 0.5% CMC/1% Tween 80). • d. Tumors were measured and weighed twice a week after the administration of test compounds began. • e. Animals were euthanized at the end of the experiment. • f. Data were processed by using softwares such as Excel. […] When the tumor regress, TGI (%)=[1−(average tumor volume of the treatment group at the end of the administration−average tumor volume of the treatment group at the beginning of the administration)/average tumor volume of the treatment group at the beginning of the administration]×100%.

MKN1 (E545K) = test: Proliferation inhibition of PI3Kα mutant cancer cells, Cell Titer-Glo, MKN1; format: cell-based; conditions: Homo sapiens, MKN-1
Protocol: as §1, §2

PI3Kγ = target: T1, PI3Kγ (Homo sapiens, UniProt P48736); test: ADP-Glo Lipid Kinase Assay, PI3Kγ kinase activity; format: biochemical; conditions: ratio of IC50 values
T1 construct: purchased Thermofisher #PV4786
Protocol: (§3) In this experiment, ADP-Glo Lipid Kinase Assay (Promega #V9102) from Promega was used. The lipid kinases PI3Kα/β/γ/δ catalyzed the ATP-to-ADP reaction in the presence of the substrate PIP2:3PS and ATP. The lipid kinase activity was characterized by measuring the ADP content in the reaction, and the half inhibition concentrations IC50 of the compounds on PI3Kα/β/γ/δ kinase activity were obtained.
(§4) Kinase reactions were carried out in white 384-well plates (Perkin Elmer #6007299). 2 μL of the compound of various concentrations diluted with ddH2O containing 1% DMSO was added to each well, and 2 μL of ddH2O containing 1% DMSO was added to positive control wells. Then 2 μL of 0.1 to 2 nM PI3K kinase solution diluted with 5× kinase buffer (HEPES 250 mM, MgCl2 15 mM, NaCl 250 mM, BSA 0.05%) was added to each well, and 2 μL of 5× kinase buffer was added to the negative control wells. 4 μL of 50 μM substrate PIP2:3PS (Promega #V1701) prepared with 10× Dilution buffer and ddH2O was added to all wells. Finally, 2 μL of 50 to 100 μM ATP solution diluted with water was added to start the reaction. After the reaction was carried out at room temperature for 90 to 120 minutes, 10 µL of ADP-Glo Reagent (containing 10 mM MgCl2) was added to each well, and the reaction was carried out at room temperature for 60 minutes to eliminate excess adenosine triphosphate (ATP) in the reaction. Then 20 μL of Kinase Detection Reagent was added to each well. After the reaction was carried out for 20 minutes at room temperature in the dark, the chemiluminescence was measured by BioTek Synergy H1 microplate reader.
as §2, with “positive” for “solvent”, “wells (DMSO control wells) and negative control wells (no kinase added)” for “wells”, “inhibition=100−[(test” for “inhibition=100−(test”, “value−negative control value)]/(positive control value-negative” for “value−solvent”

HCC1954 (H1047R) = test: Proliferation inhibition of PI3Kα mutant cancer cells, Cell Titer-Glo, HCC1954; format: cell-based; conditions: Homo sapiens
Protocol: as §1, §2

PI3Kβ = target: T2, PI3Kβ (Homo sapiens, UniProt P42338); test: ADP-Glo Lipid Kinase Assay, PI3Kβ kinase activity; format: biochemical; conditions: ratio of IC50 values
T2 construct: purchased Carna #11-102
Protocol: as §3, §4
as §2, with “positive” for “solvent”, “wells (DMSO control wells) and negative control wells (no kinase added)” for “wells”, “inhibition=100−[(test” for “inhibition=100−(test”, “value−negative control value)]/(positive control value-negative” for “value−solvent”

PI3Kδ = target: T3, PI3Kδ (Homo sapiens, UniProt O00329); test: ADP-Glo Lipid Kinase Assay, PI3Kδ kinase activity; format: biochemical; conditions: ratio of IC50 values
T3 construct: purchased Carna #11-103
Protocol: as §3, §4
as §2, with “positive” for “solvent”, “wells (DMSO control wells) and negative control wells (no kinase added)” for “wells”, “inhibition=100−[(test” for “inhibition=100−(test”, “value−negative control value)]/(positive control value-negative” for “value−solvent”

SD rats = test: Toxicity test of a 7-day repeatedly intragastric administration in SD rats; format: in vivo; conditions: SD rats, intragastric once/day, 7 days
Excerpt: • Test compound 1: GDC-0077 • Test compound 2: the compounds of Example 22 and Example 62 3.2.2 Vehicle • Name: 20% aqueousSBE-β-CD (Captisol) solution 3.2.3 Animal Information • Species & strains: Sprague-Dawley (SD) rat • Animal grade: SPF grade • Number and sex of animals: 160 rats, half male and half female. 3.2.4 Instruments • The ADVIA®2120 series Hematology System with Autoslide was used for blood cell counting; • The SYSMEX CA-500 Coagulation Analyzer was used for the detection of coagulation function indicators; • The TBA-120FR Automated Biochemical Analyzer was used for the detection of blood biochemical indicators; • The Easylyte Electrolyte Analyzer was used for the detection of electrolytes; • The liquid mass spectrometry detector model API4000; • The electron spray ionization (ESI) positive ion mode and column type Agilent ZORBAX XDB-C18 (3.5 μm, 2.1×50 mm) were used for bioanalytical detection of plasma samples. 3.3 Experimental Method • 1) In the experiment, 160 rats (80 rats/sex) were divided into 20 groups according to their sex and body weight, wherein 100 rats were used for toxicology study (groups 1 to 10, 5 rats/sex/group) and 60 rats were used for toxicokinetic study (groups 11 to 20, 3 rats/sex/group); • 2) As the vehicle control group, the animals in groups 1 and 11 were intragastrically administered 20% aqueous SBE-β-CD (Captisol) solution; • 3) The animals in groups 2 and 12, groups 3 and 13, and groups 4 and 14 were intragastrically administered 10, 30 and 60 mg/kg of GDC-0077, respectively; • 4) The animals in groups 5 and 15, groups 6 and 16, and groups 7 and 17 were intragastrically administered 10, 30 and 60 mg/kg of the compound of Example 22, respectively; • 5) The animals in groups 8 and 18, groups 9 and 19, groups 10 and 20 were intragastrically administered 10, 30 and 60 mg/kg of the compound of Example 62, respectively; • 5) The animals were administered once a day for 7 consecutive days (the animals in groups 7, 17, 10 and 20 were administered for 6 consecutive days). • 6) The administration volume was 10 mL/kg. • 7) During the experiment, items such as clinical observation, body weight, food intake, clinicopathological indicators (blood cell count, coagulation function, blood biochemistry), toxicokinetics and the like were studied. • 8) All animals were euthanized on Day 8 (the animals in groups 7, 10, 17 and 20 were euthanized after administration on Day 6). • 9) During the experiment, gross anatomical observation was performed on the animals in groups 1 to 10, animals in groups 17 and 20, and dead animals (including animals in toxicological study). Histopathological examination was performed on abnormal tissues, gastrointestinal tissues (such as colon, cecum) and immune tissues (such as thymus). […]

[1] = Hygroscopicity experiment; format: physicochemical; conditions: RH 80%
Protocol: Crystal form A of mesylate salt, crystal form D of sulfate salt and crystal form A of ethanesulfonate salt of (S)-2-((2-((R)-4-(difluoromethyl)-2-oxothiazolidin-3-yl)-5,6-dihydrobenzo[f]imidazo[1,2-d][1,4]oxazepin-9-yl)amino)propionamide were placed in saturated water vapor with different relative humidity, so that the compound and water vapor reached a dynamic equilibrium, and the percentage of hygroscopic weight gain of the compound after the equilibrium was calculated.

[2] = PK studies in animals of salt crystal forms, intragastric 30 mg/kg; format: in vivo; conditions: 0.5% HPMC K4M suspension
Protocol: 7.2.1 Crystal form A of mesylate salt, crystal form D of sulfate salt and crystal form A of ethanesulfonate salt of (S)-2-((2-((R)-4-(difluoromethyl)-2-oxothiazolidin-3-yl)-5,6-dihydrobenzo[f]imidazo[1,2-d][1,4]oxazepin-9-yl)amino)propionamide were evenly suspended in an aqueous solution containing 0.5% HPMC (hydroxypropyl methylcellulose) K4M, and then intragastrically administered to rats in duplicate at a dose of 30 mg/kg. The amount of the compound was all converted into the amount of the same compound (S)-2-((2-((R)-4-(difluoromethyl)-2-oxothiazolidin-3-yl)-5,6-dihydrobenzo[f]imidazo[1,2-d][1,4]oxazepin-9-yl)amino)propionamide.

[3] = rat, in vivo, po, rats, 30 mg/kg (as free compound)

T1 sequence (P48736 whole entry): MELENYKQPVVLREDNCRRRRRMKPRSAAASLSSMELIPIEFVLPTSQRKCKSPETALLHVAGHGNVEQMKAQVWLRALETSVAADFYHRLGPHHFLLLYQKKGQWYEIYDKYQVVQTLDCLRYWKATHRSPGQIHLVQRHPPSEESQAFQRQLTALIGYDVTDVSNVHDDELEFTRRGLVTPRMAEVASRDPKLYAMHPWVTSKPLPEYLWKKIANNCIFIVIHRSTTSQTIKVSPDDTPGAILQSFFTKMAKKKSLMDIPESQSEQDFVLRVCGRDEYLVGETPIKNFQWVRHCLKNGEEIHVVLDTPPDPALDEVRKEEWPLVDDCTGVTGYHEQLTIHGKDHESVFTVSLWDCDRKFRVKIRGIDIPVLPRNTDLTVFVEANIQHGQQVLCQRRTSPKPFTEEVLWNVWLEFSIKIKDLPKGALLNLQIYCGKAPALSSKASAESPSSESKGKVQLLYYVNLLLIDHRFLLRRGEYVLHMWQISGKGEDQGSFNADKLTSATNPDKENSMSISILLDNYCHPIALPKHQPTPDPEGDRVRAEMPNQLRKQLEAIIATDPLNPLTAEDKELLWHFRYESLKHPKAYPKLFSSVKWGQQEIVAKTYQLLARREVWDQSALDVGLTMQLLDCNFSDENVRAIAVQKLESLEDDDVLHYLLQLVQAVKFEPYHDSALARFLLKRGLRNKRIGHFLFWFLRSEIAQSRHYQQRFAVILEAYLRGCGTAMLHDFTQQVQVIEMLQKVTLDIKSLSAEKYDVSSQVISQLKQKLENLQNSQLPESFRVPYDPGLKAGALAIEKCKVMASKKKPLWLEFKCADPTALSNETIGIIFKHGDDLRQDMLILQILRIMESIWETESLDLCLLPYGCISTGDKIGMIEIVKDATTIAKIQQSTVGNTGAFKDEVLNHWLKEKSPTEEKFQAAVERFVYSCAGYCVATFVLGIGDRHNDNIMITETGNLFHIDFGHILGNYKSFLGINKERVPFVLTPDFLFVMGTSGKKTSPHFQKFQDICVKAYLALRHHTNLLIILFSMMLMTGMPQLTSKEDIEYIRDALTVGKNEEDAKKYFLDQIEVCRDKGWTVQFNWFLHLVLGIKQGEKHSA
T2 sequence (P42338 whole entry): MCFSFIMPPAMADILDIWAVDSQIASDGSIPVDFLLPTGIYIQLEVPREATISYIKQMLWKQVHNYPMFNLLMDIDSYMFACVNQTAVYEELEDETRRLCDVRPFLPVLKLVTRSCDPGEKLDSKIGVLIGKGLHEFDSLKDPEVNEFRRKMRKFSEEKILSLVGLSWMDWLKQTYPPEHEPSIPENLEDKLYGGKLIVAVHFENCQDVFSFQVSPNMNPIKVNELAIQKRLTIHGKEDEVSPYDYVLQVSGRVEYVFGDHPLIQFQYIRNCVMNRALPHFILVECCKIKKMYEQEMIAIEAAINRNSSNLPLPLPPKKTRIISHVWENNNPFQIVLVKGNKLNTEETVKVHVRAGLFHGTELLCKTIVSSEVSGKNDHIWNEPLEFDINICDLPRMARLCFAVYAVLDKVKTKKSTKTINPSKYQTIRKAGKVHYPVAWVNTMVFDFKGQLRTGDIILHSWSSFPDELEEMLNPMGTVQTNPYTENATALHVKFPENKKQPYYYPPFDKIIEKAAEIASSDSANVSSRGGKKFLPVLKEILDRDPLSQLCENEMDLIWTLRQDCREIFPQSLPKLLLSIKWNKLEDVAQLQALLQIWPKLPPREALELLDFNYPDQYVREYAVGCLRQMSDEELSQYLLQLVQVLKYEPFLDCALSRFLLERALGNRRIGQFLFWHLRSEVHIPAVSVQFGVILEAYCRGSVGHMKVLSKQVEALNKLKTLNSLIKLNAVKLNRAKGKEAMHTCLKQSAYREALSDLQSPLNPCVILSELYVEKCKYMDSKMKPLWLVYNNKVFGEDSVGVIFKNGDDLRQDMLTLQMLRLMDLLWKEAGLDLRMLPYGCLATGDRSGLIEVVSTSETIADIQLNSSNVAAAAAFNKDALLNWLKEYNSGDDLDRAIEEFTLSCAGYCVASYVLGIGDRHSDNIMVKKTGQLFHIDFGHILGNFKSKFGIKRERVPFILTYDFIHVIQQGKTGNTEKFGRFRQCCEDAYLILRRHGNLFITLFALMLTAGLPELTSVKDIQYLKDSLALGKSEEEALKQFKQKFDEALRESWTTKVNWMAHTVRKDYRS
T2 sequence (P27986 whole entry partner): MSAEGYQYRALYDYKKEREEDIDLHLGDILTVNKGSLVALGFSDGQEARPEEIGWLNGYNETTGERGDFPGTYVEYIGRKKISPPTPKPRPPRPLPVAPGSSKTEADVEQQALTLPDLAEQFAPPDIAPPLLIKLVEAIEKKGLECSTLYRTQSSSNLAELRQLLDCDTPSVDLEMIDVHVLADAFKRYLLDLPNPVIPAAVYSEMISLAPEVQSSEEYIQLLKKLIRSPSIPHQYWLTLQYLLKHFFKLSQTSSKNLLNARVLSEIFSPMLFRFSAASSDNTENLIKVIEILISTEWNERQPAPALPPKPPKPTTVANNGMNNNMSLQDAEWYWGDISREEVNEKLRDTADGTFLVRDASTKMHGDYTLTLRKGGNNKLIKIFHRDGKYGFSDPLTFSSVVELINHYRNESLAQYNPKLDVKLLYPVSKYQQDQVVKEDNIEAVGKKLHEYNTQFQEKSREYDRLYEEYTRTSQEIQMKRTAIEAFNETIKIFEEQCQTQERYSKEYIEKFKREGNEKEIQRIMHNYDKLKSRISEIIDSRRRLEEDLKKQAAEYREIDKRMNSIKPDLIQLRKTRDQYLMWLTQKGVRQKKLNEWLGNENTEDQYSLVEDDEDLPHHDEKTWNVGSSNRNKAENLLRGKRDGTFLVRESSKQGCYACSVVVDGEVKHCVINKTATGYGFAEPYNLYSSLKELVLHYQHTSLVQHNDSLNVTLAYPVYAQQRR
T3 sequence (O00329 whole entry): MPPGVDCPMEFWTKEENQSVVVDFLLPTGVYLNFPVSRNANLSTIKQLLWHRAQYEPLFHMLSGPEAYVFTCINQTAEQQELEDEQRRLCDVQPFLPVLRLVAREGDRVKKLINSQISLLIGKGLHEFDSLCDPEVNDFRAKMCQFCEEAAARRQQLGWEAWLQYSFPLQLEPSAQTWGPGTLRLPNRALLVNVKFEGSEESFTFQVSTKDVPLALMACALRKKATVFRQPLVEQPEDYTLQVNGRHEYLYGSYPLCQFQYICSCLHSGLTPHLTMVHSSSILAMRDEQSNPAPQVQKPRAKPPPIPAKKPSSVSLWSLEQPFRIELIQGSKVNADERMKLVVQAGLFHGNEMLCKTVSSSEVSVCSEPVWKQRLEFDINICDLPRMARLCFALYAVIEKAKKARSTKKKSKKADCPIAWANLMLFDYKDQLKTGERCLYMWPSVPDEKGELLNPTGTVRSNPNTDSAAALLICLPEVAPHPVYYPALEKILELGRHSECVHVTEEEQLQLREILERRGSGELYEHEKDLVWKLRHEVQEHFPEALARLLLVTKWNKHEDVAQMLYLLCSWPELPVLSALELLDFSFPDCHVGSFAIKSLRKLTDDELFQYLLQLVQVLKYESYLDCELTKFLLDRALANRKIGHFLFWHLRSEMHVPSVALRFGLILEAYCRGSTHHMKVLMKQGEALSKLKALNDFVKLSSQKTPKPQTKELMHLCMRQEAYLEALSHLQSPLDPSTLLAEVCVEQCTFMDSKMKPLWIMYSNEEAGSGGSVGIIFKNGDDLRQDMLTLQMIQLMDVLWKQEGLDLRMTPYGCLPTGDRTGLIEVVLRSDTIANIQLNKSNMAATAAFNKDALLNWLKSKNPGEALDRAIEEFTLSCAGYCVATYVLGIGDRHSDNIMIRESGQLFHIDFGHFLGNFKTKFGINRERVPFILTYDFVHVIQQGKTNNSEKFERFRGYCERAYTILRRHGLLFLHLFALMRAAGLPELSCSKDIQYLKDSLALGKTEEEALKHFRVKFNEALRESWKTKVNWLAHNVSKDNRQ
T3 sequence (P27986 whole entry partner): as the sequence (P27986 whole entry partner) above

Structure (SMILES)	IC50 (HGC-27 (E542K)) [nM]	Tumor growth inhibition rate (HCC1954 cell) [%]	IC50 (MKN1 (E545K)) [nM]	Selectivity of PI3Kα vs PI3Kγ (PI3Kγ)	IC50 (HCC1954 (H1047R)) [nM]	Selectivity of PI3Kα vs PI3Kβ (PI3Kβ)	Selectivity of PI3Kα vs PI3Kδ (PI3Kδ)	lethal dose (SD rats) [mg/kg]	hygroscopic weight gain [1] [%]	hygroscopicity (in words) [1]	exposure in rats (in words) ([2]; 30 mg/kg)	AUC(0-inf) [2, 3] [ng·h/mL]	AUC(0-t) [2, 3] [ng·h/mL]	Cmax [2, 3] [ng/mL]	Tmax [2, 3] [h]	half-life [2, 3] [h]	MRT inf ([2]; rat, in vivo, po, rats, 30 mg/kg (as free compound), read-out: MRT0-∞) [h]
COC[C@H](Nc1ccc2c(c1)OCCn1cc(N3C(=O)SC[C@H]3C(F)F)nc1-2)C(N)=O [Example 52, (S)-2-((2-((R)-4-(difluoromethyl)-2-oxothiazolidin-3-yl)-5,6-dihydrobenzo[f]imidazo[1,2-d][1,4]oxazepin-9-yl)amino)-3-methoxypropionamide]	137	98	109	376	57	754	139										
C[C@H](Nc1ccc2c(c1)OCCn1cc(N3C(=O)O[C@H](C)[C@H]3C(F)F)nc1-2)C(N)=O [Example 25, (S)-2-((2-((4S,5R)-4-(difluoromethyl)-5-methyl-2-oxooxazolidin-3-yl)-5,6-dihydrobenzo[f]imidazo[1,2-d][1,4]oxazepin-9-yl)amino)propionamide]	93	120	84	401	79	1499	280										
C[C@H](Nc1ccc2c(c1)OCCn1cc(N3C(=O)OC[C@H]3C(F)F)nc1-2)C(N)=O [GDC-0077, reference compound]								60									
C[C@H](Nc1ccc2c(c1)OCCn1cc(N3C(=O)SC[C@H]3C(F)F)nc1-2)C(N)=O.O=S(=O)(O)O [crystal form D of sulfate salt, (S)-2-((2-((R)-4-(difluoromethyl)-2-oxothiazolidin-3-yl)-5,6-dihydrobenzo[f]imidazo[1,2-d][1,4]oxazepin-9-yl)amino)propionamide]									1.256	had hygroscopicity	higher exposures	9600	9420	1360	1	3.3	5.77
C[C@H](Nc1ccc2c(c1F)OCCn1cc(N3C(=O)SC[C@H]3C(F)F)nc1-2)C(N)=O [Example 50, (S)-2-((2-((R)-4-(difluoromethyl)-2-oxothiazolidin-3-yl)-8-fluoro-5,6-dihydrobenzo[f]imidazo[1,2-d][1,4]oxazepin-9-yl)amino)propionamide]	233	96	118	103	98	197	81										
